Measurements as given in ChEMBL document CHEMBL5131436, “Dual Sigma-1 receptor antagonists and hydrogen sulfide-releasing compounds for pain treatment: Design, synthesis, and pharmacological evaluation” (Eur J Med Chem, 2022).
In brackets after ≈: the same amount, converted by molar mass. Activity calls are given as the source filed them. No cut-off for these calls is given here.

How the values were obtained:
[1] = biological target: T1, Sigma non-opioid intracellular receptor 1 (Cavia porcellus, UniProt Q60492); experiment: biochemical
T1 sequence (Q60492 whole entry): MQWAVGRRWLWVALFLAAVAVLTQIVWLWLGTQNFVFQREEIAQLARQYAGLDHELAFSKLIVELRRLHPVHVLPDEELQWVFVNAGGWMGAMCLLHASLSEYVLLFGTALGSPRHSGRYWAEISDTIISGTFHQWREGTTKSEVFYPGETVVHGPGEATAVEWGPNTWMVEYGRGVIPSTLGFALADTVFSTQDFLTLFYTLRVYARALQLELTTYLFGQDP

[2] = biological target: Sigma intracellular receptor 2 (Homo sapiens, UniProt Q5BJF2); experiment: Displacement of [3H]-di-o-tolylguanidine from Sigma 2-receptor (unknown origin)
Chain of Sigma intracellular receptor 2 (Homo sapiens, UniProt Q5BJF2) (Q5BJF2 whole entry): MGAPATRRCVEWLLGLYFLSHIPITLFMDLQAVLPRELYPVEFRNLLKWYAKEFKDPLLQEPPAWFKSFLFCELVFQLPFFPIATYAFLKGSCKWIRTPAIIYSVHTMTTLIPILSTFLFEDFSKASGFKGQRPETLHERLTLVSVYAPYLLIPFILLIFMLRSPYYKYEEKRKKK

[3] = biological target: Sigma non-opioid intracellular receptor 1 (Homo sapiens, UniProt Q99720); experiment: Displacement of [3H]-pentazocine from Sigma 1-receptor (unknown origin)
Chain of Sigma non-opioid intracellular receptor 1 (Homo sapiens, UniProt Q99720) (Q99720 whole entry): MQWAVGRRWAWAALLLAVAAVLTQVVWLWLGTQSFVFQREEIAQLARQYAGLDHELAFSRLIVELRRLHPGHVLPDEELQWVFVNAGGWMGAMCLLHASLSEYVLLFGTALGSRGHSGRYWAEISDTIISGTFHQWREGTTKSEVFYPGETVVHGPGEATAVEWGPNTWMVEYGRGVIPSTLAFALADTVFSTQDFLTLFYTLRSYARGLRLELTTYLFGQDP

Mu-type opioid receptor = Mu-type opioid receptor (Rattus norvegicus, UniProt P33535); experiment: Displacement of [3H]-DAMGO from Sprague-Dawley rat brain membrane mu opioid receptor incubated for 45 mins by liquid scintillation counting analysis; type: cell membranes
Chain of Mu-type opioid receptor (P33535 whole entry): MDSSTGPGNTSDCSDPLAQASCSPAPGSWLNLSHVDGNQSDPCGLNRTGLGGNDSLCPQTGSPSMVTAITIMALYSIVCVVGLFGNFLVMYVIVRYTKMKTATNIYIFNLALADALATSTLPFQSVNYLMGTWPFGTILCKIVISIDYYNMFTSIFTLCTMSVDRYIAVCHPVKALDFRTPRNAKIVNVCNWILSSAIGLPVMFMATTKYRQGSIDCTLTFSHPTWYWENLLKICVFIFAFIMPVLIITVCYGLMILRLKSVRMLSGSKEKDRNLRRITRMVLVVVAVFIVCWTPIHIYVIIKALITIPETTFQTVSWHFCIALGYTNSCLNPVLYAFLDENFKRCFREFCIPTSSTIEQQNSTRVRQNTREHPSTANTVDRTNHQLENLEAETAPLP

[4] = biological target: Delta-type opioid receptor (Rattus norvegicus, UniProt P33533); experiment: Displacement of [3H]-(2-D-Ala)[Tyrosy1-3,5-]-DELTORPHIN II from Sprague-Dawley rat brain membrane delta opioid receptor incubated for 45 mins by liquid scintillation counting analysis; type: cell membranes
Chain of Delta-type opioid receptor (P33533 whole entry): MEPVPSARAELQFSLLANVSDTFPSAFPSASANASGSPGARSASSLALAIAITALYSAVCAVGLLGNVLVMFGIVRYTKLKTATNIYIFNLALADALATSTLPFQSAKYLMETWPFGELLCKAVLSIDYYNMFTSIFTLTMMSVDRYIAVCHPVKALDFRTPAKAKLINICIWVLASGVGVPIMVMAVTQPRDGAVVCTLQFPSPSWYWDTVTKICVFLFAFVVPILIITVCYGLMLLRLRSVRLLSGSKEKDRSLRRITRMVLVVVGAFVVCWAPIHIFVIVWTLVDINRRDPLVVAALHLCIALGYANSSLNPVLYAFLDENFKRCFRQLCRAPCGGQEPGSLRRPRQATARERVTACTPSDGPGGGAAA

[5] = biological target: Kappa-type opioid receptor (Cavia porcellus, UniProt P41144); experiment: Displacement of [3H]-U69593 from Dunkin-Hartley guinea pig brain membrane kappa opioid receptor incubated for 30 mins by liquid scintillation counting analysis; type: cell membranes
Chain of Kappa-type opioid receptor (P41144 whole entry): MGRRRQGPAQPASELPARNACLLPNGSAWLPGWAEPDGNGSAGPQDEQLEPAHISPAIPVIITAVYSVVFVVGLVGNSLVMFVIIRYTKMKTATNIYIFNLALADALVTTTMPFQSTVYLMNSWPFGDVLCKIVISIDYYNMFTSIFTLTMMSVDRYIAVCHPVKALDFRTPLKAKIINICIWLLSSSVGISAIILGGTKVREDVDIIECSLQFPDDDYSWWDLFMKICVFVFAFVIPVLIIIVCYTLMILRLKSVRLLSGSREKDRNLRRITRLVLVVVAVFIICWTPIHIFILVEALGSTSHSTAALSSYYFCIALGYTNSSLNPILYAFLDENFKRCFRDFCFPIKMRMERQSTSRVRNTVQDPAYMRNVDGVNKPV

[6] = biological target: T2, Sigma intracellular receptor 2 (Rattus norvegicus, UniProt Q5U3Y7); experiment: biochemical
T2 sequence (Q5U3Y7 whole entry): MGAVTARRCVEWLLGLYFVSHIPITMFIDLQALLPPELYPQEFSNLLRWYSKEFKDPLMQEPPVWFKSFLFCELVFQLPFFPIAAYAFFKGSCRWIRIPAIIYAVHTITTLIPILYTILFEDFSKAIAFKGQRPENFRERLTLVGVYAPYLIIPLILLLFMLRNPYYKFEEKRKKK

[7] = Stability of compound in phosphate buffer at pH 7.4 assessed as half life by UHPLC-PDA analysis; type: physicochemical
[8] = Induction of hypotension in wild type CD1 mouse assessed as mean arterial blood pressure at 30 to 40 mg/kg, sc incubated upto 45 mins by tail-cuff plethysmography; type: toxicity, organism-based; conditions: in vivo, 0.75 h, dose 30-40 mg/kg
[9] = biological target: Voltage-gated inwardly rectifying potassium channel KCNH2 (Homo sapiens, UniProt Q12809); experiment: Inhibition of human ERG potassium channel expressed in CHO-K1 cells by Qube-automated patch clamp assay; type: toxicity, cell-based
Chain of Voltage-gated inwardly rectifying potassium channel KCNH2 (Q12809 whole entry): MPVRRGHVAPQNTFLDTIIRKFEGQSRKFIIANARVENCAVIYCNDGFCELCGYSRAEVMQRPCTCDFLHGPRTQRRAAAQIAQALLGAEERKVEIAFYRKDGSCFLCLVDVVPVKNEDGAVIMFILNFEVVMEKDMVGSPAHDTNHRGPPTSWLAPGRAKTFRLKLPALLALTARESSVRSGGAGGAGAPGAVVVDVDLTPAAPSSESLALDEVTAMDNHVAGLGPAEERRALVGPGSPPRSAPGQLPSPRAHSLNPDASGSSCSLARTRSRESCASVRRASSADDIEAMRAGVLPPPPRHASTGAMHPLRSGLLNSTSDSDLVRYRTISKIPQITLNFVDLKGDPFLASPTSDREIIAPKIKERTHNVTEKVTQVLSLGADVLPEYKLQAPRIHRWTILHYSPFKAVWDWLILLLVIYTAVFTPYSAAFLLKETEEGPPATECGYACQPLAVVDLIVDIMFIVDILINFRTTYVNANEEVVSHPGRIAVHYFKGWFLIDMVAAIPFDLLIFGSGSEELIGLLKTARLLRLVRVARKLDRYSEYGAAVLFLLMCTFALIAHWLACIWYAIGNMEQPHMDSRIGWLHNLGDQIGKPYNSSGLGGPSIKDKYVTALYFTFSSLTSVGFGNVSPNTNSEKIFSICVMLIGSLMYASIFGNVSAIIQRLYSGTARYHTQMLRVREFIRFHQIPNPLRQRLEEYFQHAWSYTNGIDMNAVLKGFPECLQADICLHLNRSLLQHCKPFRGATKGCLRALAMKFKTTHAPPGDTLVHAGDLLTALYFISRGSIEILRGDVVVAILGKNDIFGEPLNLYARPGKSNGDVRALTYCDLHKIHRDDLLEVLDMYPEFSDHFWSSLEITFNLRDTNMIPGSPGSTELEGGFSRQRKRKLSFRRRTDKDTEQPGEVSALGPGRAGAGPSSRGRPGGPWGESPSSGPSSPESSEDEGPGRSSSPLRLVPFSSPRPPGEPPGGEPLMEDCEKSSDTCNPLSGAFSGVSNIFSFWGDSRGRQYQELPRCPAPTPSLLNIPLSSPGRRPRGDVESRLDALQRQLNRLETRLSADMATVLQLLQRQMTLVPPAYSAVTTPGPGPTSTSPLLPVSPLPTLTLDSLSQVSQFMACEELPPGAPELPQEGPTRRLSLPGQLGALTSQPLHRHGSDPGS

hERG (KCNH2) = hERG (KCNH2) (Homo sapiens, UniProt Q12809); experiment: Inhibition of human ERG potassium channel expressed in CHO-K1 cells at 10 uM by Qube-automated patch clamp assay relative to control; type: toxicity, cell-based; conditions: CHO-K1 cells expressing human ERG potassium channel
Chain of hERG (KCNH2) (Q12809 whole entry): as above

[10] = Stability of compound in saline solution assessed as half life by UHPLC-PDA analysis; type: physicochemical
Mus musculus [11] = experiment: Analgesic activity in wild type CD1 mouse model of capsaicin-induced mechanical hypersensitivity assessed as reduction of capsaicin-induced mechanical hypersensitivity at 40 mg/kg, sc in presence of sigma1 receptor agonist PRE-084; type: functional, organism-based
[12] = Aqueous solubility of compound at 5 mg measured for 24 hrs by UHPLC-PDA analysis; type: physicochemical; conditions: water
[13] = Induction of motor coordination impairment in wild type CD1 mouse assessed as latency to fall at 40 mg/kg, sc measured upto 4 hrs by rotarod test; type: toxicity, organism-based; conditions: in vivo
[14] = Induction of H2S release in PBS buffer incubated for 1 hrs in presence of Washington State Probe-1 by spectrofluorimeter assay; type: functional
Mus musculus [15] = experiment: Analgesic activity in wild type CD1 mouse model of capsaicin-induced mechanical hypersensitivity assessed as reduction of capsaicin-induced mechanical hypersensitivity at 10 to 40 mg/kg, sc; type: functional, organism-based; conditions: dose 10-40 mg/kg
Mus musculus [16] = experiment: Analgesic activity in wild type CD1 mouse model of capsaicin-induced mechanical hypersensitivity assessed as reduction in mechanical hypersensitivity at 5 mg/kg, sc in presence of BD-1063 at 5 mg/kg and PRE-084 at 32 mg/kg; type: functional, organism-based
[17] = Induction of motor coordination impairment in wild type CD1 mouse assessed as latency to fall at 5 mg/kg, sc in presence of sigma-1 receptor […] BD-1063 at 5 mg/kg, sc measured upto 4 hrs by rotarod test; type: toxicity, organism-based; conditions: in vivo
Mus musculus [18] = experiment: Analgesic activity in wild type CD1 mouse model of capsaicin-induced mechanical hypersensitivity assessed as reduction in mechanical hypersensitivity at 5 mg/kg, sc in presence of sigma-1 receptor antagonist BD-1063 at 5 mg/kg; type: functional
Mus musculus [19] = experiment: Antinociceptive activity in sc dosed wild type CD1 mouse model of capsaicin-induced mechanical hypersensitivity assessed as reduction in mechanical hypersensitivity; type: functional
[20] = Induction of H2S release in PBS buffer at 100 uM in presence of Washington State Probe-1 by spectrofluorimeter assay; type: functional
Mus musculus [21] = experiment: Antinociceptive activity in wild type CD1 mouse model of capsaicin-induced mechanical hypersensitivity assessed as reduction in mechanical hypersensitivity at 10 mg/kg, sc in presence of Sigma 1 receptor agonist PRE-084; type: functional, organism-based
[22] = biological target: T1, Sigma non-opioid intracellular receptor 1

Structure (SMILES) | Ki [1] [µM] | Ki (Mu-type opioid receptor) [µM] | Ki [4] [µM] | Ki [5] [µM] | Ki [6] [µM] | Activity [14] [µM] | also measured
O=C(NC1CCN(Cc2ccccc2)CC1)c1ccc(F)cc1 | 0.006 | – | – | – | – | – | Ki [2]: 0.19 µM; Ki [3]: 0.006 µM
NC(=O)c1ccc(C(=O)O)cc1 | > 10 | > 10 | > 10 | > 10 | > 10 | – | –
NC(=S)c1ccc(C(=O)NC2CCN(Cc3ccccc3)CC2)cc1 | – | > 10 | > 10 | > 10 | – | 38.4 | half-life [7]: 1.55 h; Activity [8]: Non-Toxic; IC50 [9]: 6.8 µM; inhibition at 10 µM (hERG (KCNH2)): 60%; half-life [10]: 4.17 h; Activity (Mus musculus [11]): Active; solubility at 24 h [12]: 1.25 µM (≈ 0.442 µg/mL); Activity [13]: Non-Toxic; Activity (Mus musculus [15]): Active
NC(=S)c1ccc(C(=O)N2CCN(Cc3ccccc3)CC2)cc1 | 0.668 | > 10 | > 10 | > 10 | > 10 | 46.7 | Activity (Mus musculus [11]): Active; Activity (Mus musculus [15]; DDE = dose-dependent effect): Dde
NC(=S)c1ccc(C(=O)O)cc1 | – | > 10 | > 10 | > 10 | – | 34.4 | Activity (Mus musculus [16]): Active; Activity [17]: Non-Toxic; ED50 (Mus musculus [18]): 7.52 mg/kg; ED75 (Mus musculus [18]): 9.75 mg/kg; ED90 (Mus musculus [18]): 12.6 mg/kg; ED50 (Mus musculus [19]): 6.12 mg/kg; Activity [20]: Active; Activity (Mus musculus [21]): Active
NC(=S)c1ccc(C(=O)OC(CCCN2CCC(O)(c3ccc(Cl)cc3)CC2)c2ccc(F)cc2)cc1 (stereo not drawn) | 0.156 | 1.46 | > 10 | > 10 | 0.311 | 51.7 | –
NC(=O)c1ccc(C(=O)N2CCN(Cc3ccccc3)CC2)cc1 | > 5 | 2.55 | > 10 | > 10 | > 10 | – | Activity (Mus musculus [11]): Active; Activity (Mus musculus [15]): Active
CN1CCN(CCc2ccc(Cl)c(Cl)c2)CC1 | – | – | – | – | – | – | Ki [22]: 0.014 µM; ED50 (Mus musculus [19]): 10.3 mg/kg
NC(=O)c1ccc(C(=O)OC(CCCN2CCC(O)(c3ccc(Cl)cc3)CC2)c2ccc(F)cc2)cc1 (stereo not drawn) | 0.173 | 0.817 | > 10 | > 10 | 0.618 | – | –
Oc1ccc2c3c1O[C@H]1c4[nH]c5ccccc5c4C[C@@]4(O)[C@@H](C2)N(CC2CC2)CC[C@]314 [NALTRINDOLE] | – | – | 0.00253 | – | – | – | –
NC(=S)c1ccc(C(=O)OCCCCN2CCC(O)(c3ccc(Cl)cc3)CC2)cc1 | 0.058 | > 10 | > 10 | > 10 | 0.266 | 41.8 | –
C[C@@H]1CCO[C@H]2Cn3cc(C(=O)NCc4ccc(F)cc4F)c(=O)c(O)c3C(=O)N12 [DOLUTEGRAVIR] | 0.124 | – | – | – | 0.018 | – | –
NC(=O)c1ccc(C(=O)NC2CCN(Cc3ccccc3)CC2)cc1 | – | > 10 | > 10 | > 10 | – | – | –
NC(=O)c1ccc(C(=O)OCCCCN2CCC(O)(c3ccc(Cl)cc3)CC2)cc1 | 0.126 | > 10 | > 10 | > 10 | 0.933 | – | –
